In patent publication US9593108B2, “Compounds and methods for antiviral treatment” (PTC Therapeutics, Inc., priority 2009, dated 2017):

Assays:
[1] = tested on: HCV replicon RNA (GenBank Accession No. AJ242654); assay: HCV Replicon Assay (replicon RNA reduction and/or Fluc reporter signal); assay type: cell-based, Hepatitis C virus; conditions: Hepatitis C virus, 72 h, replicon-containing cells cultured with test compound for up to 3 days
How it was run: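 IC50 values mostly reflect the drop in replicon RNA, though Fluc reporter signal may also be used. Compound incubated with cells carrying the bicistronic replicon for as long as 3 days; interferon served as positive control.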

Row | SMILES | IC50 [1] | melting point
1 | COc1cnc2c(c1)c(C#N)c(-c1ccc(S(=O)(=O)N[C@H](C)C(F)(F)F)cn1)n2C1CCCC1 [Cpd 268, 6-(3-cyano-1-cyclopentyl-5-methoxy-1H-pyrrolo[2,3-b]pyridin-2-yl)-N-[(2R)-1,1,1-trifluoropropan-2-yl]pyridine-3-sulfonamide] | 0.5 to 2 µM | 181 to 184 °C
2 | C[C@H](NS(=O)(=O)c1ccc(-c2c(C#N)c3cc(Cl)cnc3n2-c2ncccn2)nc1)C(F)(F)F [Cpd 270, 6-[5-chloro-3-cyano-1-(pyrimidin-2-yl)-1H-pyrrolo[2,3-b]pyridin-2-yl]-N-[(2S)-1,1,1-trifluoropropan-2-yl]pyridine-3-sulfonamide] | < 0.5 µM | 223 to 225 °C
3 | COc1cnc2c(c1)c(C#N)c(-c1ccc(S(=O)(=O)NC(C)(C)C)cn1)n2C1CCC1 [Cpd 271, N-tert-butyl-6-(3-cyano-1-cyclobutyl-5-methoxy-1H-pyrrolo[2,3-b]pyridin-2-yl)pyridine-3-sulfonamide] | 0.5 to 2 µM | 174 to 176 °C
4 | CSc1cnc2c(c1)c(C#N)c(-c1ccc(S(=O)(=O)N[C@@H](C)C(F)(F)F)cn1)n2C1CCCC1 [Cpd 272, 6-[3-cyano-1-cyclopentyl-5-(methylsulfanyl)-1H-pyrrolo[2,3-b]pyridin-2-yl]-N-[(2S)-1,1,1-trifluoropropan-2-yl]pyridine-3-sulfonamide] | < 0.5 µM | 168 to 172 °C
5 | CSc1cnc2c(c1)c(C#N)c(-c1ccc(S(=O)(=O)N[C@H](C)C(F)(F)F)cn1)n2C1CCCC1 [Cpd 273, 6-[3-cyano-1-cyclopentyl-5-(methylsulfanyl)-1H-pyrrolo[2,3-b]pyridin-2-yl]-N-[(2R)-1,1,1-trifluoropropan-2-yl]pyridine-3-sulfonamide] | < 0.5 µM | 124 to 127 °C
6 | CSc1cnc2c(c1)c(C#N)c(-c1ccc(S(=O)(=O)NC3(C(F)(F)F)CC3)cn1)n2C1CCCC1 [Cpd 274, 6-[3-cyano-1-cyclopentyl-5-(methylsulfanyl)-1H-pyrrolo[2,3-b]pyridin-2-yl]-N-[1-(trifluoromethyl)cyclopropyl]pyridine-3-sulfonamide] | < 0.5 µM | 200 to 203 °C
7 | C[C@H](NS(=O)(=O)c1ccc(-c2c(C#N)c3cc(O)cnc3n2C2CCC2)nc1)C(F)(F)F [Cpd 275, 6-(3-cyano-1-cyclobutyl-5-hydroxy-1H-pyrrolo[2,3-b]pyridin-2-yl)-N-[(2S)-1,1,1-trifluoropropan-2-yl]pyridine-3-sulfonamide] | < 0.5 µM | 240 to 242 °C
8 | CC[C@H](NS(=O)(=O)c1ccc(-c2c(C#N)c3cc(Cl)cnc3n2C2CCC2)nc1)C(F)(F)F [Cpd 276, 6-(5-chloro-3-cyano-1-cyclobutyl-1H-pyrrolo[2,3-b]pyridin-2-yl)-N-[(2S)-1,1,1-trifluorobutan-2-yl]pyridine-3-sulfonamide] | < 0.5 µM | 186 to 191 °C
9 | COc1cnc2c(c1)c(C#N)c(-c1cc(C)c(S(=O)(=O)N[C@@H](C)C(F)(F)F)cn1)n2C1CCC1 [Cpd 277, 6-(3-cyano-1-cyclobutyl-5-methoxy-1H-pyrrolo[2,3-b]pyridin-2-yl)-4-methyl-N-[(2S)-1,1,1-trifluoropropan-2-yl]pyridine-3-sulfonamide] | < 0.5 µM | 175 to 179 °C
10 | Cc1cc(-c2c(C#N)c3cc(Cl)cnc3n2C2CCCC2)ncc1S(=O)(=O)N[C@@H](C)C(F)(F)F [Cpd 278, 6-(5-chloro-3-cyano-1-cyclopentyl-1H-pyrrolo[2,3-b]pyridin-2-yl)-4-methyl-N-[(2S)-1,1,1-trifluoropropan-2-yl]pyridine-3-sulfonamide] | < 0.5 µM | 190 to 195 °C
11 | CC[C@H](NS(=O)(=O)c1ccc(-c2c(C#N)c3cc(C)cnc3n2C2CCC2)nc1)C(F)(F)F [Cpd 279, 6-(3-cyano-1-cyclobutyl-5-methyl-1H-pyrrolo[2,3-b]pyridin-2-yl)-N-[(2S)-1,1,1-trifluorobutan-2-yl]pyridine-3-sulfonamide] | < 0.5 µM | 138 to 144 °C
12 | N#Cc1c(-c2ccc(S(=O)(=O)NC3CCC3)cn2)n(C2CCC2)c2ncc(Cl)cc12 [Cpd 283, 6-(5-chloro-3-cyano-1-cyclobutyl-1H-pyrrolo[2,3-b]pyridin-2-yl)-N-cyclobutylpyridine-3-sulfonamide] | < 0.5 µM | 178 to 180 °C
13 | C[C@H](NS(=O)(=O)c1cnc(-c2c(C#N)c3cc(Cl)cnc3n2C2CCC2)nc1)C(F)(F)F [Cpd 285, 2-(5-chloro-3-cyano-1-cyclobutyl-1H-pyrrolo[2,3-b]pyridin-2-yl)-N-[(2S)-1,1,1-trifluoropropan-2-yl]pyrimidine-5-sulfonamide] | < 0.5 µM | 205 to 207 °C
14 | CC1(NS(=O)(=O)c2cnc(-c3c(C#N)c4cc(Cl)cnc4n3C3CCC3)nc2)CC1 [Cpd 286, 2-(5-chloro-3-cyano-1-cyclobutyl-1H-pyrrolo[2,3-b]pyridin-2-yl)-N-(1-methylcyclopropyl)pyrimidine-5-sulfonamide] | < 0.5 µM | 237 to 240 °C
15 | C[C@H](NS(=O)(=O)c1ccc(-c2c(C#N)c3ncc(Cl)cc3n2C2CCCCC2)cc1)C(F)(F)F [Cpd 287, 4-(6-chloro-3-cyano-1-cyclohexyl-1H-pyrrolo[3,2-b]pyridin-2-yl)-N-[(2S)-1,1,1-trifluoropropan-2-yl]benzenesulfonamide] | 0.5 to 2 µM | 300 to 305 °C
16 | CC(C)(C)S(=O)(=O)Nc1ccc(-c2c(C#N)c3ncc(Cl)cc3n2C2CCCCC2)cc1 [Cpd 288, N-[4-(6-chloro-3-cyano-1-cyclohexyl-1H-pyrrolo[3,2-b]pyridin-2-yl)phenyl]-2-methylpropane-2-sulfonamide] | 0.5 to 2 µM | 279 to 283 °C
17 | Cc1cnc2c(c1)c(C#N)c(-c1cc(C)c(S(=O)(=O)N[C@@H](C)C(F)(F)F)cn1)n2C1CCC1 [Cpd 289, 6-(3-cyano-1-cyclobutyl-5-methyl-1H-pyrrolo[2,3-b]pyridin-2-yl)-4-methyl-N-[(2S)-1,1,1-trifluoropropan-2-yl]pyridine-3-sulfonamide] | < 0.5 µM | 218 to 223 °C
18 | Cc1cc(S(=O)(=O)N[C@@H](C)C(F)(F)F)cnc1-c1c(C#N)c2cc(Cl)cnc2n1C1CCCC1 [Cpd 290, 6-(5-chloro-3-cyano-1-cyclopentyl-1H-pyrrolo[2,3-b]pyridin-2-yl)-5-methyl-N-[(2S)-1,1,1-trifluoropropan-2-yl]pyridine-3-sulfonamide] | < 0.5 µM | 240 to 245 °C
19 | Cc1cnc2c(c1)c(C#N)c(-c1ncc(S(=O)(=O)N[C@@H](C)C(F)(F)F)cc1C)n2C1CCC1 [Cpd 291, 6-(3-cyano-1-cyclobutyl-5-methyl-1H-pyrrolo[2,3-b]pyridin-2-yl)-5-methyl-N-[(2S)-1,1,1-trifluoropropan-2-yl]pyridine-3-sulfonamide] | < 0.5 µM | 181 to 185 °C
20 | COc1cnc2c(c1)c(C#N)c(-c1ncc(S(=O)(=O)N[C@@H](C)C(F)(F)F)cc1C)n2C1CCC1 [Cpd 292, 6-(3-cyano-1-cyclobutyl-5-methoxy-1H-pyrrolo[2,3-b]pyridin-2-yl)-5-methyl-N-[(2S)-1,1,1-trifluoropropan-2-yl]pyridine-3-sulfonamide] | < 0.5 µM | 180 to 183 °C
21 | Cc1cnc2c(c1)c(C#N)c(-c1ccc(S(=O)(=O)NC(C)(C)C)cn1)n2C1CCC1 [Cpd 293, N-tert-butyl-6-(3-cyano-1-cyclobutyl-5-methyl-1H-pyrrolo[2,3-b]pyridin-2-yl)pyridine-3-sulfonamide] | < 0.5 µM | 173 to 175 °C
22 | C[C@H](NS(=O)(=O)c1ccc(-c2c(C#N)c3cc(O)cnc3n2C2CCCC2)nc1)C(F)(F)F [Cpd 294, 6-(3-cyano-1-cyclopentyl-5-hydroxy-1H-pyrrolo[2,3-b]pyridin-2-yl)-N-[(2S)-1,1,1-trifluoropropan-2-yl]pyridine-3-sulfonamide] | < 0.5 µM | 221 to 223 °C
23 | C[C@H](NS(=O)(=O)c1ccc(-c2c(C#N)c3cc(C(F)(F)F)cnc3n2CC2CC2)nc1)C(F)(F)F [Cpd 295, 6-[3-cyano-1-(cyclopropylmethyl)-5-(trifluoromethyl)-1H-pyrrolo[2,3-b]pyridin-2-yl]-N-[(2S)-1,1,1-trifluoropropan-2-yl]pyridine-3-sulfonamide] | < 0.5 µM | 193 to 195 °C
24 | CC(C)(C)NS(=O)(=O)c1ccc(-c2c(C#N)c3cc(C(F)(F)F)cnc3n2CC2CC2)nc1 [Cpd 296, N-tert-butyl-6-[3-cyano-1-(cyclopropylmethyl)-5-(trifluoromethyl)-1H-pyrrolo[2,3-b]pyridin-2-yl]pyridine-3-sulfonamide] | < 0.5 µM | 179 to 180 °C
25 | CC(C)(C)NS(=O)(=O)c1ccc(-c2c(C#N)c3cc(C(F)(F)F)cnc3n2C2CCC2)nc1 [Cpd 297, N-tert-butyl-6-[3-cyano-1-cyclobutyl-5-(trifluoromethyl)-1H-pyrrolo[2,3-b]pyridin-2-yl]pyridine-3-sulfonamide] | < 0.5 µM | 176 to 178 °C
26 | Cc1cc(-c2c(C#N)c3cc(C(F)(F)F)cnc3n2C2CCC2)ncc1S(=O)(=O)N[C@@H](C)C(F)(F)F [Cpd 298, 6-[3-cyano-1-cyclobutyl-5-(trifluoromethyl)-1H-pyrrolo[2,3-b]pyridin-2-yl]-4-methyl-N-[(2S)-1,1,1-trifluoropropan-2-yl]pyridine-3-sulfonamide] | < 0.5 µM | 166 to 171 °C
27 | Cc1cnc2c(c1)c(C#N)c(-c1cccc(NS(=O)(=O)C(C)C)c1)n2C1CCC1 [Cpd 299, N-[3-(3-cyano-1-cyclobutyl-5-methyl-1H-pyrrolo[2,3-b]pyridin-2-yl)phenyl]propane-2-sulfonamide] | 2 to 5 µM | 166 to 173 °C
